Measured values reported in patent publication US10875845B2, “Compounds and methods for the treatment of ocular disorders” (Azura Ophthalmics Ltd., priority 2019, dated 2020).

Assays:
Rabbit Cornea Homogenate = Rabbit Cornea Homogenate Stability Assay (rabbit cornea esterase assay); type: in vitro ADME; settings: 37° C.
Method: Determining Rabbit Cornea Homogenate stability of the test compounds was performed using HPLC-MS. The assay was performed at two concentrations of Rabbit Cornea Homogenate (0.15 mg/ml and 0.45 mg/ml total protein) so that any hydrolysis observed could be assigned as esterase dependent or not.
Five rabbit corneas (e.g. New Zealand Whites) of approx. 50 mg each were sliced and scraped with a scalpel and tweezers until reduced to small (1-3 mm), thin pieces. These were transferred into a tared vial and accurately weighed, then diluted with 10 volumes aqueous PBS pH7.4
Sample was cooled intermittently on ice and shear homogenized for 3 minutes, then centrifuged for 3 min at 3000 rpm. The supernatant was pipetted off into a vial, and total protein concentration determined at 280 nm. Sample was stored at −78° C.
10 mM Compound stocks were diluted to 100 μM in a 96 deep-well plate: 10 μl of 10 mM Compound stock was added to 990 μl 50 mM HEPES, pH7.5 buffer.
Compounds were further diluted to 10 μM: 100 μl of 100 μM compound was added to 900 μl 50 mM HEPES, pH7.5 buffer.
Esterase homogenate was diluted to 300 ng/μl and 900 ng/μl
A heater shaker was set to 37° C. Into a suitable 96 well plate (Run Plate), 75 μl of 300 or 900 ng/μl esterase homogenate was pipetted into each of the required wells (2 min, 5 min, 10 min, 20 min and 45 min). The plate was sealed and then warmed at 37° C. for 5 min. Another 96 well PCR plate is put on ice (Kill Plate). To this was added 100 μl of MeCN to each well, labelled 0 min, 2 min, 5 min, 10 min, 20 min and 45 min. The plate was covered to minimise evaporation. For the T=0 sample only, to the 100 μl cold MeCN stop solution was added 50 μl of 300 or 900 ng/μl esterase homogenate followed by 50 μl of 10 μM compound solution For the remaining time points, 75 μl of 10 μM compound solution was added to the Run Plate starting from T=45 min row and ending with T=2 min row. At the appropriate time point, 100 μl of the assay mixture was added to the matching kill plate well containing 100 μl of cold MeCN. Samples were analysed as soon as practicable by LCMS (Waters Xevo TQ-S or Micromass Ultima).
Parent conjugate and parent concentrations were determined against appropriate standard response curves and the half-life (T1/2) of the parent conjugate was calculated using the peak area of the parent conjugate at each time point in the linear region of the log—linear plot.

[1] = Aqueous Hydrolysis Stability Assay; type: physicochemical; settings: 100 μM in 50 mM HEPES pH 7.5 buffer or 1:1 Acetonitrile:Water, room temperature
Method: Determination of aqueous stability of the test compounds was performed using HPLC-MS. A test compound 10 mM stock solution was prepared in DMSO. 10 μl of the DMSO stock solution was dissolved in 990 μl of 50 mM HEPES pH 7.5 buffer or 1:1 (v/v) of Acetonitrile:Water to make a 100 μM solution. Final DMSO concentration was 1%. The solution was kept at room temperature and injected without delay into the LCMS (Waters Xevo TQ-S or Micromass Ultima). Additional injections were performed at appropriate time points.
Half-life (T1/2) of the parent conjugate was calculated using the peak area of the parent conjugate at each time point in the linear region of the log—linear plot.

[2] = Cornea Homogenate Conc 0.15 mg/mL
[3] = Cornea Homogenate Conc 0.45 mg/mL

Compound	API Formation rate (Rabbit Cornea Homogenate; [2])	Esterase % Lifitegrast formation at 45 min (Rabbit Cornea Homogenate; [2])	API Formation rate (Rabbit Cornea Homogenate; [3])	Esterase % Lifitegrast formation at 45 min (Rabbit Cornea Homogenate; [3])	Hydrolytic % Lifitegrast formation at [time] ([1]; at 45 min)	Hydrolytic % Lifitegrast formation at [time] ([1]; at 192 min)	Hydrolytic % Lifitegrast formation at [time] ([1]; at 142 min)
CC(OC(=O)[C@H](Cc1cccc(S(C)(=O)=O)c1)NC(=O)c1c(Cl)cc2c(c1Cl)CCN(C(=O)c1ccc3ccoc3c1)C2)OC(=O)[C@@H](C)O (stereo partly drawn) [Comp 18, 1-(((R)-2-hydroxypropanoyl)oxy) ethyl (2S)-2-(2-(benzofuran-6-carbonyl)-5,7-dichloro-1,2,3,4-tetrahydroisoquinoline-6-carboxamido)-3-(3-(methylsulfonyl)phenyl) propanoate]	c (API formation rate 1.0-1.5%/min)	C (percent API formation 51% to 75%)	d (API formation rate>1.5%/min)	D (percent API formation>75%)	C [45 min] (percent API formation>4%)	–	–
Cc1ccccc1OCC(=O)N[C@@H](CC(C)C)C(=O)N[C@@H](Cc1ccc(OC(=O)N2CCC(C(N)=O)CC2)cc1)C(=O)OC(C)OC(=O)OC(C)C (stereo partly drawn) [Comp 2, 4-((2S)-3-(1-((isopropoxycarbonyl)oxy)ethoxy)-2-((S)-4-methyl-2-(2-(o-tolyloxy)acetamido)pentan-amido)-3-oxopropyl)phenyl 4-carbamoylpiperidine-1-carboxylate]	b (API formation rate 0.5-1.0%/min)	B (percent API formation 25% to 50%)	c (API formation rate 1.0-1.5%/min)	C (percent API formation 51% to 75%)	–	A [192 min] (percent active pharmaceutical ingredient (API) formation<1.5%)	–
CC(=O)OCC(COC(C)=O)COC(=O)OC(C)OC(=O)[C@H](Cc1cccc(S(C)(=O)=O)c1)NC(=O)c1c(Cl)cc2c(c1Cl)CCN(C(=O)c1ccc3ccoc3c1)C2 (stereo partly drawn) [Comp 11, 2-((8S)-10-(2-(benzofuran-6-carbonyl)-5,7-dichloro-1,2,3,4-tetrahydroisoquinolin-6-yl)-5-methyl-8-(3-(methylsulfonyl)benzyl)-3,7,10-trioxo-2,4,6-trioxa-9-azadecyl)propane-1,3-diyl diacetate]	b (API formation rate 0.5-1.0%/min)	B (percent API formation 25% to 50%)	c (API formation rate 1.0-1.5%/min)	B (percent API formation 25% to 50%)	–	–	C [142 min] (percent API formation>4%)
CCOC(=O)[C@@H](C)OC(=O)OC(C)OC(=O)[C@H](Cc1cccc(S(C)(=O)=O)c1)NC(=O)c1c(Cl)cc2c(c1Cl)CCN(C(=O)c1ccc3ccoc3c1)C2 (stereo partly drawn) [Comp 8, 1-(((((R)-1-ethoxy-1-oxopropan-2-yl)oxy)carbonyl)oxy)ethyl (2S)-2-(2-(benzofuran-6-carbonyl)-5,7-dichloro-1,2,3,4-tetrahydroisoquinoline-6-carboxamido)-3-(3-(methylsulfonyl)phenyl) propanoate]	b (API formation rate 0.5-1.0%/min)	B (percent API formation 25% to 50%)	d (API formation rate>1.5%/min)	C (percent API formation 51% to 75%)	A [45 min] (percent active pharmaceutical ingredient (API) formation<1.5%)	–	–
CC(C)OC(=O)OC(C)OC(=O)[C@H](Cc1cccc(S(C)(=O)=O)c1)NC(=O)c1c(Cl)cc2c(c1Cl)CCN(C(=O)c1ccc3ccoc3c1)C2 (stereo partly drawn) [Comp 5, 1-((isopropoxycarbonyl)oxy)ethyl (2S)-2-(2-(benzofuran-6-carbonyl)-5,7-dichloro-1,2,3,4-tetrahydroisoquinoline-6-carboxamido)-3-(3-(methylsulfonyl)phenyl) propanoate]	b (API formation rate 0.5-1.0%/min)	B (percent API formation 25% to 50%)	d (API formation rate>1.5%/min)	D (percent API formation>75%)	–	A [192 min] (percent active pharmaceutical ingredient (API) formation<1.5%)	–
COC(=O)OC(C)OC(=O)[C@H](Cc1cccc(S(C)(=O)=O)c1)NC(=O)c1c(Cl)cc2c(c1Cl)CCN(C(=O)c1ccc3ccoc3c1)C2 (stereo partly drawn) [Comp 3, 1-((methoxycarbonyl)oxy) ethyl (2S)-2-(2-(benzofuran-6-carbonyl)-5,7-dichloro-1,2,3,4-tetrahydroisoquinoline-6-carboxamido)-3-(3-(methylsulfonyl)phenyl) propanoate]	d (API formation rate>1.5%/min)	B (percent API formation 25% to 50%)	b (API formation rate 0.5-1.0%/min)	C (percent API formation 51% to 75%)	B [45 min] (percent API formation 1.5-4%)	–	–
CC(OC(=O)OC(C)(C)C)OC(=O)[C@H](Cc1cccc(S(C)(=O)=O)c1)NC(=O)c1c(Cl)cc2c(c1Cl)CCN(C(=O)c1ccc3ccoc3c1)C2 (stereo partly drawn) [Comp 6, 1-((tert-butoxycarbonyl)oxy)ethyl (2S)-2-(2-(benzofuran-6-carbonyl)-5,7-dichloro-1,2,3,4-tetrahydroisoquinoline-6-carboxamido)-3-(3-(methylsulfonyl)phenyl) propanoate]	a (API formation rate<0.5%/min)	A (percent active pharmaceutical ingredient (API) formation<25%)	b (API formation rate 0.5-1.0%/min)	B (percent API formation 25% to 50%)	–	–	C [142 min] (percent API formation>4%)
CC(OC(=O)CO)OC(=O)[C@H](Cc1cccc(S(C)(=O)=O)c1)NC(=O)c1c(Cl)cc2c(c1Cl)CCN(C(=O)c1ccc3ccoc3c1)C2 (stereo partly drawn) [Comp 19, 1-(2-hydroxyacetoxy)ethyl (2S)-2-(2-(benzofuran-6-carbonyl)-5,7-dichloro-1,2,3,4-tetrahydroisoquinoline-6-carboxamido)-3-(3-(methylsulfonyl)phenyl) propanoate]	b (API formation rate 0.5-1.0%/min)	B (percent API formation 25% to 50%)	b (API formation rate 0.5-1.0%/min)	B (percent API formation 25% to 50%)	B [45 min] (percent API formation 1.5-4%)	–	–
CCC(=O)OC(C)OC(=O)[C@H](Cc1cccc(S(C)(=O)=O)c1)NC(=O)c1c(Cl)cc2c(c1Cl)CCN(C(=O)c1ccc3ccoc3c1)C2 (stereo partly drawn) [Comp 15, 1-(propionyloxy)ethyl (2S)-2-(2-(benzofuran-6-carbonyl)-5,7-dichloro-1,2,3,4-tetrahydroisoquinoline-6-carboxamido)-3-(3-(methylsulfonyl)phenyl) propanoate]	d (API formation rate>1.5%/min)	C (percent API formation 51% to 75%)	d (API formation rate>1.5%/min)	D (percent API formation>75%)	B [45 min] (percent API formation 1.5-4%)	–	–
CCOC(=O)OC(C)OC(=O)[C@H](Cc1cccc(S(C)(=O)=O)c1)NC(=O)c1c(Cl)cc2c(c1Cl)CCN(C(=O)c1ccc3ccoc3c1)C2 (stereo partly drawn) [Comp 4, 1-((ethoxycarbonyl)oxy)ethyl (2S)-2-(2-(benzofuran-6-carbonyl)-5,7-dichloro-1,2,3,4-tetrahydroisoquinoline-6-carboxamido)-3-(3-(methylsulfonyl)phenyl) propanoate]	b (API formation rate 0.5-1.0%/min)	B (percent API formation 25% to 50%)	c (API formation rate 1.0-1.5%/min)	C (percent API formation 51% to 75%)	B [45 min] (percent API formation 1.5-4%)	–	–
